Where no end group is shown, it is not given here. The star is where a group is joined. 5‑TAMRA = CN(C)c1ccc2c(-c3ccc(C(=O)*)cc3C(=O)[O-])c3ccc(N(C)C)cc3[o+]c2c1; DEAC = CCN(CC)c1ccc2cc(C(=O)*)c(=O)oc2c1; Cy5.5 = Cy5.5 fluorescent dye; Ahx = NCCCCCC(=O)O

The text below walks through data of patent US8901276B2, “Peptide reagents and methods for detection of colon dysplasia” (The Regents of the University of Michigan, priority 2010, dated 2014).

Assay [1] concerns colonic adenomas. Nature of the assay: In vivo imaging with non-scanning endoscope, FITC-labeled peptides. Set-up: species or system CPC; Apc mice. The following applies: Non-scanning Endoscopy Results; FITC label; mean ± SD. The text has this: Specific binding of the candidate peptides to primary dysplastic colonic epithelial cells were validated on flow cytometry ex vivo and with small animal endoscopy in vivo using FITC-labeled peptides using a non-scanning white light endoscope.

Assay [2] relates to human colonic mucosa sections (normal, dysplasia, adenocarcinoma). Nature of the assay: Cy5.5-labeled peptide staining of human colonic mucosa sections. The following applies: for sections of adenocarcinoma stained / sections of dysplasia stained: stained/total sections. Here is the method: All specimens were obtained with approval from the University of Michigan Institutional Review Board (IRB). Freshly resected specimens of human colonic mucosa were frozen in OCT and sectioned with 10 μm thickness using Microm-HM-550 Microtome (EquipNet, Inc. Canton, Mass.). The sections were then air dried, washed with PBS 1×, and incubated with the Cy5.5-labeled peptides at a concentration of 10 μM for 15 min at RT. The sections were washed 3× for 1 min in PBS and fixed with 4% paraformaldehyde for 10 min. After fixation, the sections were washed again (1×) and mounted with ProLong Gold reagent with DAPI (Invitrogen, Carlsbad, Calif.). The sections were imaged under a confocal microscope (Leica TCS SP5 Microsystems, Bannockburn, Ill.). Adjacent sections were sent for routine histology. The average intensity from the entire field-of-view of each image was calculated using Matlab (Mathworks, Natick, Mass.).
For the ex-vivo peptide immunohistochemistry, the nonparametric Kruskal-Wallis test was used to determine if observed differences are statistically significant among all three pathological classifications. The nonparametric Mann-Whitney test was used for comparisons between two independent samples, and differences with p<0.05 were considered significant.

Assay [3] deals with colonic dysplasia (adenomas). The experiment in a line: In vivo NIR fluorescence endoscopic imaging. Details: species or system CPC;Apc mice. The note with it: for fluorescence signal on in vivo NIR image: 100 μM topical, 5 min; for average T/B ratio: adenoma/adjacent normal ratio as defined. The text has this: Anesthesia was induced and maintained with inhaled isofluorane mixed with oxygen via a nose cone at a dose of 4% and 2% at a flow rate 0.5 liter/min, respectively. Prior to peptide administration, the colon of each mouse was cleaned with a tap water lavage to remove debris. The conventional white light endoscope was used first with a color camera to identify the presence of adenomas. The colon was then rinsed with water until all of the visible mucous was removed. The Cy5.5-labeled peptides were then delivered at a concentration of 100 μM in 1×PBS containing 2.5% DMSO […] through the instrument channel. The peptides were allowed to incubate for 5 minutes, and then the colon was cleansed 3 times with a tap water to remove any unbound peptide. Prior to imaging, the colon was inspected for residual peptide solution, and when clean, the colon was insufflated with air for imaging. Fluorescence images were collected using Axiovision 4.8.1 software.
Images collected during endoscopy were recorded as .zvi files and converted into .tiff images using Axiovision Lite software. Consecutive white light and fluorescence images for each adenoma were analyzed. Regions of interest (ROI) around the adenoma and adjacent normal-appearing mucosa were defined on the color and fluorescence images using Labview®. The white light image was utilized to draw an ROI around the adenoma or adjacent normal appearing colonic mucosa which was then superimposed onto the fluorescent image. Mean gray scale values were calculated for each ROI, and an adenoma/normal colon, or a T/B ratio, value was then calculated for each adenoma. The mean fluorescence intensities were calculated from each ROI to determine the ratio of the average intensities for the adenomas to that from adjacent normal-appearing mucosa, or T/B ratio.
Two-tailed independent samples t-tests (significance level at α=0.05) were used to determine statistical significance between the T/B ratio for the QPI-Cy5.5 and YTT-Cy5.5 peptides binding to colonic adenomas in the CPC;Apc mice. All statistical computations were processed either using statistical software (SPSS15.0.; SPSS, Chicago, Ill.) or Minitab (Minitab Inc. State College, Pa.).

Assay [4] concerns colonic adenomas. The experiment in a line: In vivo imaging with multi-spectral scanning fiber endoscope. Details: species or system CPC; Apc mice. The following applies: 100 μM topical, 5 min; for Average T/B: Multi-Spectral Scanning Fiber Endoscopy Results, mean ± SD. The text has this: A scanning fiber endoscope system was adapted for fluorescence detection in three channels (RGB) using excitation at 440 (NDHB510APA, Nichia, Tokyo, Japan), 532 (FTEC532-V10TA0, Blue Sky Research, Milpitas, Calif.) and 635 (FMXL635-017TA0B, Blue Sky Research) nm using an RGB coupler (OZ Optics, Ottawa, Canada). The three laser sources are delivered simultaneously into the scanning fiber, and focused to the same point on the illumination plane using a custom lens assembly, as shown in the schematic in FIG. 2A. The laser power coming out of the distal tip of the endoscope is <2 mW for each channel, a level consistent with a non-significant risk (NSR) determination by the U.S. Food and Drug Administration (FDA, 21 CFR 812) for future human clinical studies. The amplitude of the spiral scanner was reduced to achieve a divergence angle of 70 deg (max 100 deg) to minimize noise in the periphery of the image. Fluorescence is collected by a ring of 12 step-index plastic optical fibers (POF) with numerical aperture (N.A.) of 0.63 and outer diameter of 250 μm (Toray Industries Inc, Tokyo, Japan).
The CPC;Apc mice were first imaged with white light using a non-scanning endoscope (Karl Storz Veterinary Endoscopy, Goleta, Calif.) to assess for the presence of colonic adenomas that have a size between ˜0.5 to 4 mm in diameter. Any adenomas were rinsed of debris including stool and mucous, by delivering tap water through a 3 Fr instrument channel. Then, the fluorescent-labeled peptides were delivered topically at a concentration of 100 μM in 1×PBS in a volume of 1 mL to the distal 4 cm of the colon and rectum. The peptides were incubated for 5 minutes and then the unbound peptides were rinsed away with tap water 3 times. The colon was inspected for any residual peptide, and when clean, the colon was insufflated with air and imaged with the multi-spectral scanning fiber endoscope.
Videos collected during endoscopy were exported as avi video files and converted into sequential png images using Apple QuickTime. White light and fluorescence images for each adenoma were analyzed in NIH Image J. The white light image was utilized to draw a region of interest (ROI) around the adenoma or adjacent normal appearing colonic mucosa which was then superimposed onto the fluorescence image. The mean fluorescence intensities were calculated for each ROI, and a target/background (T/B) ratio was calculated for each colonic adenoma and compared to the surrounding normal appearing mucosa.

In another assay the test system is HT29 cells. Nature of the assay: Competitive inhibition assay (bound phage counts). Type of assay: cell-based, human. Here is the method: Bound phage counts were performed to observe the competitive inhibition effect of the synthetic candidate heptapeptide with its representative phage counterpart in triplicate. HT29 cells (5×10^6) were detached with enzyme free cell dissociation buffer and blocked with 1% BSA containing PBS for 30 min at 4° C. The cells were washed and incubated with phage (2×10^11) for 15 min. Then, the cells were washed with PBS and immediately incubated with different concentrations of unlabeled peptide ranging from 10 to 200 μM for an additional 15 min. Cells were washed 3× and the bound phages were recovered as described above in bound phage counts. The bound phages were then tittered and counted, and the relative inhibition rate was calculated. The inhibition activity of no-insert WT phage by synthetic candidate peptide and phage with unrelated synthetic control peptide were used as negative controls.

As to “ATTVPAS-FITC: ATTVPAS labeled with 5′-FITC at the C-terminus via GGGSK linker (not fully specified; GGGSK linker, FITC)”, in the assay with colonic adenomas [1], the “Average T/B” value was 1.06 ± 0.33.

As to “QPI-Cy5.5: QPIHPNNM conjugated with Cy5.5 on the N-terminus via an amino-hexanoic acid linker ({Cy5.5-Ahx}-QPIHPNNM; not fully specified)”, in assay [2] (10 μM, 15 min, RT), the “staining of dysplasia and adenocarcinoma” value is given as “consistently stained”; the “staining of normal colonic mucosa” value is “did not stain any of the 7 sections”. Besides, in assay [2] (10 μM, 15 min, RT, listed as QPI-CY5.5), the “staining of normal colonic mucosa” value was “no binding”. In addition, in assay [2] (adenocarcinoma), the “T/B ratio QPI-Cy5.5 in comparison to YTT-Cy5.5” value is given as 2.9, the “intensity ratio relative to normal colonic mucosa” value is listed as 6.5 and the “mean NIR fluorescence intensity” value was determined as 9.8±2.4 AU. In assay [2] (dysplasia), the “T/B ratio QPI-Cy5.5 in comparison to YTT-Cy5.5” value turned out to be 26.7, the “intensity ratio relative to normal colonic mucosa” value stood at 7.1 and the “mean NIR fluorescence intensity” value was 10.7±3.3 AU. For the same substance, in assay [2] (normal), the “mean NIR fluorescence intensity” value came to 1.5±1.0 AU. In addition, the “T/B ratio QPI-Cy5.5 in comparison to YTT-Cy5.5” value in assay [2] (normal mucosa) was 1.8. Besides, in assay [2], the “sections of adenocarcinoma stained” value is given as 8/10 and the “sections of dysplasia stained” value is 6/8. Also, in assay [3], the “fluorescence signal on in vivo NIR image” value is given as “significant contrast enhancement” and the “average T/B ratio” value is 3.42±1.30.

Regarding “ANYPREP-FITC: ANYPREP labeled with 5′-FITC at the C-terminus via GGGSK linker (not fully specified; GGGSK linker, FITC)”, in the assay on colonic adenomas [1], the “Average T/B” value came out at 0.94 ± 0.11.

Take “ALTPTPP-FITC: ALTPTPP labeled with 5′-FITC at the C-terminus via GGGSK linker (not fully specified; GGGSK linker, FITC)”: the “Average T/B” value in the assay on colonic adenomas [1] was determined as 1.19 ± 0.18.

Turning to “GGGAGGGAGGGK (DEAC)-NH2 (GGGAGGGAGGGK(DEAC)-NH2; N-terminus assumed; SMILES CCN(CC)c1ccc2cc(C(=O)NCCCC[C@H](NC(=O)CNC(=O)CNC(=O)CNC(=O)[C@H](C)NC(=O)CNC(=O)CNC(=O)CNC(=O)[C@H](C)NC(=O)CNC(=O)CNC(=O)CN)C(N)=O)c(=O)oc2c1) [GGGAGGG-DEAC, reference compound]”, in the assay on colonic adenomas [4], the “binding to colonic dysplasia/adenomas on fluorescence images” value (shortened to “binding to colonic dysplasia/adenomas”) is listed as “minimal signal” and the “Average T/B” value is recorded as 1.19±0.09.

Regarding YTTNKH [YTT-Cy5.5, reference compound], in assay [2] (10 μM, 15 min, RT), the “staining of any specimen (normal, dysplasia, adenocarcinoma)” value is given as “did not stain any of the specimens” and the “staining of normal colonic mucosa” value is given as “did not stain”. Besides, in assay [2], the “sections of adenocarcinoma stained” value is listed as 5/10 and the “sections of dysplasia stained” value is recorded as “did not stain”. In assay [3], the “fluorescence signal on in vivo NIR image” value is reported as “negligible signal” and the “average T/B ratio” value turned out to be 1.88±0.38.

For the substance “AKPGYLS-FITC: AKPGYLS labeled with 5′-FITC at the C-terminus via GGGSK linker (not fully specified; GGGSK linker, FITC)”, the “Average T/B” value in the assay with colonic adenomas [1] was found to be 1.53 ± 0.48.

Consider “NLVNLLP-FITC: NLVNLLP labeled with 5′-FITC at the C-terminus via GGGSK linker (not fully specified; GGGSK linker, FITC)”, for which, in the assay with colonic adenomas [1], the “Average T/B” value is listed as 0.99 ± 0.06.

Take “GGGAGGG-FITC: FITC-labeled GGGAGGG control peptide; probably the same as FITC-Control peptide 2 (also: FITC label, site not given here) [reference compound]”: in the assay on colonic adenomas [1], the “Average T/B” value turned out to be 1.05 ± 0.05.

In the case of “LTTHYKL-FITC: LTTHYKL labeled with 5′-FITC at the C-terminus via GGGSK linker (not fully specified; GGGSK linker, FITC)”, in the assay with colonic adenomas [1], the “Average T/B” value amounted to 1.50 ± 0.73.

On to “GGGAGGGAGGGK (5-TAMRA)-NH2 (GGGAGGGAGGGK(5‑TAMRA)-NH2; N-terminus assumed; SMILES C[C@H](NC(=O)CNC(=O)CNC(=O)CN)C(=O)NCC(=O)NCC(=O)NCC(=O)N[C@@H](C)C(=O)NCC(=O)NCC(=O)NCC(=O)N[C@@H](CCCCNC(=O)c1ccc(-c2c3ccc(N(C)C)cc3[o+]c3cc(N(C)C)ccc23)c(C(=O)[O-])c1)C(N)=O) [GGGAGGG-TAMRA, reference compound]”, for which, in the assay on colonic adenomas [4], the “binding to colonic dysplasia/adenomas” value was “minimal signal” and the “Average T/B” value was 1.32±0.10.

In the case of “KCCFPAQ [Peptide 2, heptapeptide from M13 phage display]”, the “bound KCCFPAQ phage count” value in the assay with HT29 cells (HT29, 200 μM unlabeled KCCFPAQ peptide) was 3.8×10^4±6.6×10^3. In addition, the “inhibition of WT phage binding” value in the assay with HT29 cells (addition of KCCFPAQ peptide) was “did not inhibit”. Besides, in the assay on HT29 cells (peptide concentration above ˜75 μM), the “rate of inhibition at saturation” value is > 98%. Moreover, in the assay with HT29 cells (up to 200 μM unlabeled peptide), the “inhibition of KCCFPAQ phage binding to HT29 cells” value is reported as “in a dose-dependent manner”.

On to “LTTHYKL-CF633: LTTHYKL labeled with CF633 (also: CF633 label, place not given here)”, for which the “binding to colonic dysplasia/adenomas” value in the assay with colonic adenomas [4] is reported as “more subtle”.
